Results published in ChEMBL document CHEMBL5465560, “Selectivity Literature for EUbOPEN Chemogenomic Library” (2024).
One block for each molecule: values may come before it.

Columns and labels:
[1] = molecular target: T1, Inhibitor of nuclear factor kappa-B kinase subunit beta (Homo sapiens) (UniProt O14920); experiment: Selectivity interaction (Kinase panel (Invitrogen)) EUB0000639a IKBKB; settings: at 200 nM
T1 sequence (whole entry): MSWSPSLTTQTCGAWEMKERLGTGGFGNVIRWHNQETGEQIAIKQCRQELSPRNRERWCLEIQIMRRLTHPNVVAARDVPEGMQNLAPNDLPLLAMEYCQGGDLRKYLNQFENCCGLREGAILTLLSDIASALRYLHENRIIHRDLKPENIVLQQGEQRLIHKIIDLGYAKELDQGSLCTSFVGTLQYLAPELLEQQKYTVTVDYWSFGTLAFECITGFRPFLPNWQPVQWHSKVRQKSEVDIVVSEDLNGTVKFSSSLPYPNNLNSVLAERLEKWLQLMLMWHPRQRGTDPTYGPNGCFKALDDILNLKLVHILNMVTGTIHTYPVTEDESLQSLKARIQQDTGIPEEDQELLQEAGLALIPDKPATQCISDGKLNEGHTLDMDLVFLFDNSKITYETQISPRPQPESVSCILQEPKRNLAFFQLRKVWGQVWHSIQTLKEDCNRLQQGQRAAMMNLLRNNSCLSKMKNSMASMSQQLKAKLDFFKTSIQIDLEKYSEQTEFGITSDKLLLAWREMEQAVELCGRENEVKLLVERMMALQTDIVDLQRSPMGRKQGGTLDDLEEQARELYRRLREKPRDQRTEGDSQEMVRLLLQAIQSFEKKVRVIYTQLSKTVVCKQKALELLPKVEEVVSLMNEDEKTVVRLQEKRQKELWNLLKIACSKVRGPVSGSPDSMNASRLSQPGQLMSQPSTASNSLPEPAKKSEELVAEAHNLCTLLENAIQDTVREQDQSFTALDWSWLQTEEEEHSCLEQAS

[2] = molecular target: Bone morphogenetic protein receptor type-1B (Homo sapiens, UniProt O00238); experiment: Selectivity interaction (KinomeScan (DiscoverX)) EUB0000229b BMPR1B; settings: at 10 µM
[3] = molecular target: Phosphatidylinositol 4,5-bisphosphate 3-kinase catalytic subunit beta isoform (Homo sapiens) (UniProt P42338); experiment: Selectivity interaction (KinomeScan (DiscoverX)) EUB0000877a PIK3CB; settings: at 10 µM
[4] = molecular target: Protein kinase C alpha type (Homo sapiens, UniProt P17252); experiment: Selectivity interaction (Kinase panel (33PanQinase(R) Activity Assay)) EUB0000877a PRKCA
[5] = molecular target: T2, Serine/threonine-protein kinase LATS2 (Homo sapiens) (UniProt Q9NRM7); experiment: Selectivity interaction (LanthaScreen Eu Kinase Binding Assay) EUB0001632a LATS2; settings: at 10 µM
T2 sequence (whole entry): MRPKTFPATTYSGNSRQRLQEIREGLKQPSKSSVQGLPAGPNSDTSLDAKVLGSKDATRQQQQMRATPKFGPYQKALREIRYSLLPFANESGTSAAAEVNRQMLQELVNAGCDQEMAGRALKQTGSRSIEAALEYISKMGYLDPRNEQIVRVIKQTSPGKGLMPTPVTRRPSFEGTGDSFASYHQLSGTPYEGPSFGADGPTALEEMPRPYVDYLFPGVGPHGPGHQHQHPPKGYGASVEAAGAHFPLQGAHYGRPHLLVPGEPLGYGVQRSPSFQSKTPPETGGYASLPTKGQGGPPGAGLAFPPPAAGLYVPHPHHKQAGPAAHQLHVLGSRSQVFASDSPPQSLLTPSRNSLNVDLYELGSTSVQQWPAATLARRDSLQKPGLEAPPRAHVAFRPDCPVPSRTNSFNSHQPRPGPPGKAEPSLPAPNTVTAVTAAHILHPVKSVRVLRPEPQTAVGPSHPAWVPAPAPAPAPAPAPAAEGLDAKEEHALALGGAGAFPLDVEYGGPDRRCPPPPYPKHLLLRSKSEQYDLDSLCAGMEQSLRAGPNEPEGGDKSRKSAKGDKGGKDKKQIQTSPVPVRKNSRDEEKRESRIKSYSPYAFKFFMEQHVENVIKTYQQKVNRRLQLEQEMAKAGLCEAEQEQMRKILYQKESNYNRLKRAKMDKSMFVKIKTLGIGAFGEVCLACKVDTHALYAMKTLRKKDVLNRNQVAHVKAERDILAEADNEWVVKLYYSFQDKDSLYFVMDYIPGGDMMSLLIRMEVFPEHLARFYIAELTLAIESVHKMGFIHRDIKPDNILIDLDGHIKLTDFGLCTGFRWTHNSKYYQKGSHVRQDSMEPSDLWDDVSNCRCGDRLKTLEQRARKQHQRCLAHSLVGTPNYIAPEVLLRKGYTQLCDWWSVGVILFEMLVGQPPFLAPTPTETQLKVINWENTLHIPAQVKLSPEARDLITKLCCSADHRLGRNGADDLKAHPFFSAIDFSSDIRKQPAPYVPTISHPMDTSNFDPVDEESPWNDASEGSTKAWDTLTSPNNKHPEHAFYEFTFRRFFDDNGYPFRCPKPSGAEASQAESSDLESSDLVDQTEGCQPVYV

Bone morphogenetic protein receptor type-1B, sequence (O00238 whole entry, canonical isoform): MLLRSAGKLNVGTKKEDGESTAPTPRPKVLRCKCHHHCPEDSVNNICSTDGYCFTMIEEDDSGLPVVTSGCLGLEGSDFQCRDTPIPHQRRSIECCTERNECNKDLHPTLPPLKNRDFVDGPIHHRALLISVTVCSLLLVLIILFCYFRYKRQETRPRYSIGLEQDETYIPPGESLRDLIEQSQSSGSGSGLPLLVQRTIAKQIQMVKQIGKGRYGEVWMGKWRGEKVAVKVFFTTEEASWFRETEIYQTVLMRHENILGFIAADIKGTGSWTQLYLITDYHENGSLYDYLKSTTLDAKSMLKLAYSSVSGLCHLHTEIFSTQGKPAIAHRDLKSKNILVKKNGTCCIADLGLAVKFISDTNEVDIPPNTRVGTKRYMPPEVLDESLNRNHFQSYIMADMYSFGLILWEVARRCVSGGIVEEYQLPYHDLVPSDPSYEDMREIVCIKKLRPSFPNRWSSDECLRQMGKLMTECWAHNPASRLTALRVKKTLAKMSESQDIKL
Phosphatidylinositol 4,5-bisphosphate 3-kinase catalytic subunit beta isoform (Homo sapiens), sequence (P42338 whole entry, looked up, canonical isoform): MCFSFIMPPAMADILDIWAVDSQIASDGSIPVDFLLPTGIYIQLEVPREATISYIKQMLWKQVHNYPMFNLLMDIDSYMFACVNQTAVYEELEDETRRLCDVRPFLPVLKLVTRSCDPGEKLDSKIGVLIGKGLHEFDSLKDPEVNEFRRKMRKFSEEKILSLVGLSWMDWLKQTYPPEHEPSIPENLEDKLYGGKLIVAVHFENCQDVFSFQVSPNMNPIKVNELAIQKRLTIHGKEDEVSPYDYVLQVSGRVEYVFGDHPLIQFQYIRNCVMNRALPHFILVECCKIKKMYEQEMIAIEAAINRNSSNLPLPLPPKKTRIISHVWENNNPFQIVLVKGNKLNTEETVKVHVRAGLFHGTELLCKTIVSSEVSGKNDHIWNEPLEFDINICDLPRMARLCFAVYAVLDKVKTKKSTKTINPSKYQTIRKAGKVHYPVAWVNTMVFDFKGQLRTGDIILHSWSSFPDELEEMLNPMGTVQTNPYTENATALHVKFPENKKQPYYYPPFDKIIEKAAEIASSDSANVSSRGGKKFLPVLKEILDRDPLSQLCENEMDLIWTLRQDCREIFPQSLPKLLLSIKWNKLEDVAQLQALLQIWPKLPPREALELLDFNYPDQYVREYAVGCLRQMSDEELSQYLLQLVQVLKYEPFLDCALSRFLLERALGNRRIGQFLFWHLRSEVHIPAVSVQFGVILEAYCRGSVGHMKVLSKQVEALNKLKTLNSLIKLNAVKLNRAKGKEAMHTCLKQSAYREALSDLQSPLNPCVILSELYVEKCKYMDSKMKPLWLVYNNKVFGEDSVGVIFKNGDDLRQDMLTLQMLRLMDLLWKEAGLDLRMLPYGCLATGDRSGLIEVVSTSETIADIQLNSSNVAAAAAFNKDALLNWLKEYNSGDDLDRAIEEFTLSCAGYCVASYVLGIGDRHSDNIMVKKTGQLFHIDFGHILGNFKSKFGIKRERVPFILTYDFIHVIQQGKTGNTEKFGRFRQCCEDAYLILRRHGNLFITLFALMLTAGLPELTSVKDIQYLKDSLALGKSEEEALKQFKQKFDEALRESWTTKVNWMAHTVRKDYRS

% of inhibition [1]: 4.3%
SMILES: CC[C@@H]1[C@H](F)C(=O)N[C@@H]1COc1nccc2cc(C(N)=O)c(OC)cc12 [ZIMLOVISERTIB]

SMILES: COc1cc(N(C)c2ccnc3ccc(C(F)(F)F)cc23)cc(OC)c1OC
% binding [2]: 73%

% of inhibition [3]: 98% | IC50 [4]: > 10 µM
SMILES: CCC(=O)N1CC[C@H](Nc2ncnc3c2CN(c2cnc(OC)c(C(F)(F)F)c2)CC3)C1 [LENIOLISIB]

% of inhibition [5]: 1.75%
SMILES: Cn1cc(-n2cnc3c(NCc4nc5cc(Cl)c(Cl)cc5[nH]4)nc(N4CCOCC4)nc32)cn1
